Measurements reported in US5985926A, “Method for inhibiting intracellular viral replication” (Cell Therapeutics, Inc., priority 1997, dated 1999).
“Also recorded” adds a separate entry of the source. Read-outs that look alike come from different tables or passages of the source.

Tests used:
293-EBNA cells [1] = system: 293-EBNA cells
[2] = system: HIV-1 in U1 cells (TNF-α mediated expression); assay: TNF-α-mediated HIV-1 p24 antigen expression in chronically infected U1 cells; type: cell-based, HIV-1; human cells; conditions: for suppression of TNFα-mediated HIV-1 expression (p24): in words
Method: (§1) Another assay examined the effect of compounds on chronically HIV-1 infected U1 cells. A relatively high density of U1 cells at 10^4 cells/well were incubated in the absence or presence of compounds for 4 days. HIV-1 p24 antigen expression in the culture media was measured by using a ELISA kit (Abbott). Alternatively, U1 cells were plated at a relatively low density of 2×10^3 cell/well plus or minus TNF at 20 pg/ml and plus or minus compounds. The expression of HIV-1 p24 antigen in culture media was measured by ELISA four days later.
(§2) Stable cell lines 293tar, 293tat and 293tat2 were generated by transfections using conditions described in (Tate et al., FASEB J. 4:227-231, 1990) with the plasmid pHIV.AP alone or along with either pHIV.tat or pSV2tat72, respectively. The assay of HIV-1 p24 antigen expression in the chronically HIV-1-infected promonocytic line U1 after 4 days and in acutely infected peripheral blood lymphocytes (PBL) after 7 days were described (Peterson et al., J. Clin. Invest. 89:574-580, 1992, and Brighty et al., Proc Natl. Acad. Sci. USA 88:7802-7805, 1991).
(§3) This example illustrates that CT2576 inhibited both constitutive and cytokine-induced HIV expression in a chronically-infected U1 cell line. A chronically HIV-1 infected human promonocyte cell line, U1 (Poli et al., J. Exp. Med. 172:151-158, 1990), was used as a model to see if the inhibitory effect of CT2576 on HIV-LTR driven reporter gene expression could be extended to block HIV replication per se in infected cells. TNF-α and IL-6 have been reported to upregulate the expression of HIV-1 in U1 cells (Poli et al., Proc Natl. Acad. Sci. USA 91:108-112, 1994). U1 cells were plated onto 24-well microtiter plates to study the dose-response effect of CT2576 on the constitutive (10^4 cells/well), TNF-α or IL-6 mediated (2×10^3 cells/well) expression of HIV-1. CT2576 was capable of inhibiting the constitutive, the TNF-α mediated, as well as the IL-6 mediated expression of HIV in U1 cells with an IC50 value of less than 1 μM (FIG. 17).

293-EBNA cells [3] = assay: Viability of 293-EBNA cells, Alamar Blue; type: cell-based, human
Summary of the method: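 Viability read with Alamar Blue, a vital dye reduced by mitochondrial dehydrogenases to a soluble product. Signal quantified as the absorbance difference between A570 and A600.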

U1 cells = assay: Cytotoxicity in U1 cells; type: cell-based, human
Text: We studied the effect of CT-2576 on HIV expression in a chronically HIV-1 infected promonocytic U1 cell line (Folks et al., Science 238:800-802, 1987). […] TNF-α and other cytokines can induce HIV expression in U1 cells. U1 cells also express HIV constitutively when grown to a relatively high density. […] An inhibitor of viral reverse transcriptase is expected to only protect new cells from becoming infected but not to affect viral production from cells already infected with HIV. […] While TNF-α induces HIV expression through activation of NFκB, IL-6 and IL-1 also stimulates HIV expression through other pathways independent of NFκB activation in U1 cells.

[4] = system: HIV-1 in U1 cells (constitutive expression); assay: Constitutive HIV-1 p24 antigen expression in chronically infected U1 cells; type: cell-based, HIV-1; human cells; conditions: for suppression of constitutive HIV-1 expression (p24): U1 cells plated at high density, in words
Method: as §1, §2, §3

| SMILES | effect on cell viability / cytotoxicity (293-EBNA cells [1]) | suppression of TNFα-mediated HIV-1 expression (p24) ([2]; U1 cells) | cytotoxic effect on 293-EBNA cells (Alamar Blue) (293-EBNA cells [3]) | cytotoxicity in U1 cells at 25 μM (U1 cells; 25 μM, FIG. 12 bottom panel, TNFα) | suppression of constitutive HIV-1 expression (p24) [4] | IC50 ([2]; Human immunodeficiency virus 1, 96 h, read-out: IC50, TNF-α mediated HIV expression, U1 cells, 4 days) [nM] | IC50 ([2]; U1 cells, 4 days, read-out: IC50, TNF-α mediated HIV expression) [nM] | toxic concentration (not toxic at concentrations up to), 293-EBNA cells (293-EBNA cells [3]) [µM] | cytotoxicity in U1 cells, trypan-blue dye exclusion (U1 cells; trypan-blue dye exclusion assay) | IC50 ([4]; Human immunodeficiency virus 1, 96 h, read-out: IC50, constitutive HIV expression, U1 cells, 4 days) [nM] | IC50 ([4]; read-out: IC50, constitutive HIV expression, U1 cells, 4 days) [nM] |
| --- | --- | --- | --- | --- | --- | --- | --- | --- | --- | --- | --- |
| CCCCCCCCNCC(O)CCCCCCCCCN1C(=O)CCN(C)C1=O (stereo not shown) [CT1829, 3-(11-octylamino-10-hydroxyundecyl)-1-methyldihydrouracil] | minimal cytotoxic effects | suppressed HIV-1 expression | no significant cytotoxic effect | some cytotoxicity | suppressed constitutive HIV-1 expression | – | – | – | – | – | – |
| CCCCCCCCNCC(O)CCCCCCCCCn1c(=O)c2c(ncn2C)n(C)c1=O (stereo not shown) [CT2576, 1-(11-octylamino-10-hydroxyundecyl)-3,7-dimethylxanthine] | – | suppressed HIV-1 expression; also recorded: the most effective; also recorded: inhibited | – | – | the most effective; also recorded: inhibited; also recorded: suppressed constitutive HIV-1 expression | ~1000 | < 1000 | > 35 | no cytotoxicity | ~1000 | < 1000 |
